Test results as given in ChEMBL document CHEMBL5726595, “Protein kinase inhibitor containing pyrrolopyridazine derivative” (2017).

Biological target: Hepatocyte growth factor receptor (Homo sapiens, UniProt P08581)
Test: Kinase Assay: The inhibitory effect of the compounds of the present invention on the activity of c-Met was confirmed as follows.Specifically, 250 μM G4Y1 peptide, which serves as a substrate for c-Met enzyme (2 ng/μL), and 50 μM ATP were subjected to an enzyme reaction in a reaction buffer (40 mM Tris-HCl (pH 7.5), 20 mM MgCl2, 0.1 mg/mL bovine serum albumin, and 50 μM DTT). The compounds prepared in Examples and comparative compounds were treated at various concentrations and reacted at room temperature for 1 hour, sequentially added with ADP-Glo™ Reagent and the Kinase detection reagent, and reacted at room temperature for 40 minutes and 30 minutes, respectively.

Chain of Hepatocyte growth factor receptor (P08581 whole entry): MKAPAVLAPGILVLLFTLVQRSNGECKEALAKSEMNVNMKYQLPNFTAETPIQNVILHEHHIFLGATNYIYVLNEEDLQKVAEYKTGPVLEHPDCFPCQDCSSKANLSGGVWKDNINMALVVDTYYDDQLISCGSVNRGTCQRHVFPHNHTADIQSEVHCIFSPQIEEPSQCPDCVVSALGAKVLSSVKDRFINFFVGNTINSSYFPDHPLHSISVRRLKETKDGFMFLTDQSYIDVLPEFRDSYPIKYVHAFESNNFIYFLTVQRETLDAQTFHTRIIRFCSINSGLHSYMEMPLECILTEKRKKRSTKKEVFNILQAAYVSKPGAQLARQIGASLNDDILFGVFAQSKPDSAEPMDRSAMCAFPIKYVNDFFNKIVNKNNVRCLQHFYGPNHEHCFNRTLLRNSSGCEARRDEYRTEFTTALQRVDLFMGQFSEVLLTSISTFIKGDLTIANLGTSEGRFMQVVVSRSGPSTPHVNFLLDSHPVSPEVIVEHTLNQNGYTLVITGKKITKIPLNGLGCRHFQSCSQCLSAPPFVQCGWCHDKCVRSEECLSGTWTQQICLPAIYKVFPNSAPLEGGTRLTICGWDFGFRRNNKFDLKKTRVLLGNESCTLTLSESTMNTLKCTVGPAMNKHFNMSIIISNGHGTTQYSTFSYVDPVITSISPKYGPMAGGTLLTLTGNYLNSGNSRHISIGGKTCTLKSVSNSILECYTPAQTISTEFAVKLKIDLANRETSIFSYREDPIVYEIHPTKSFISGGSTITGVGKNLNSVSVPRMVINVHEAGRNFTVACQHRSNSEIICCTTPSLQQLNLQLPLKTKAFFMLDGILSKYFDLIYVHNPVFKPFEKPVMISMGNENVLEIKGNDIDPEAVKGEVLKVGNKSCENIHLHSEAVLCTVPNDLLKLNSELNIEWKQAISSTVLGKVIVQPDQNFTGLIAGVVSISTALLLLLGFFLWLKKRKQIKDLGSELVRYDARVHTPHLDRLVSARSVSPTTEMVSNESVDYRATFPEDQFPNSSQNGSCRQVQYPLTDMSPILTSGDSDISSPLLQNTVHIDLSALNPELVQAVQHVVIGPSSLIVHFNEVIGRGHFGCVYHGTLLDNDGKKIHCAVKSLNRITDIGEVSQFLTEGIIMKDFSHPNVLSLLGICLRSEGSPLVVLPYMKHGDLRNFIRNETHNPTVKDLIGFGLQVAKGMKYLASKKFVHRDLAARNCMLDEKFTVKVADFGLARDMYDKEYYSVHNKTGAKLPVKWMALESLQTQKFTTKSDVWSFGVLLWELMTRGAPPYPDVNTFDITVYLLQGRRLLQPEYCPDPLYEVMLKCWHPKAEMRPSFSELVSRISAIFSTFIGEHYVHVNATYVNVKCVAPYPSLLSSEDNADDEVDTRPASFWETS

`CN(C)Cc1ccc(F)c(-c2ccn3nccc(Oc4ccc(NC(=O)C5(C(=O)Nc6ccc(F)cc6)CC5)cc4F)c23)c1` was tested. Which IC50 did it give?
Its IC50 is under 40 nM.

How did the IC50 turn out when `CCNc1cccc(-c2ccn3nccc(Oc4ccc(NC(=O)C5(C(=O)Nc6ccc(F)cc6)CC5)cc4F)c23)c1` was run?
Its IC50 is under 40 nM.

For `CN(C)Cc1ccc(Cl)c(-c2ccn3nccc(Oc4ccc(NC(=O)C5(C(=O)Nc6ccc(F)cc6)CC5)cc4F)c23)c1`, which IC50 is on record?
The IC50 was under 40 nM.

With `NCc1cccc(-c2ccn3nccc(Oc4ccc(NC(=O)C5(C(=O)Nc6ccc(F)cc6)CC5)cc4F)c23)c1` as the compound, how does the IC50 read?
The IC50 was under 40 nM.

With `CCNCc1cccc(-c2ccn3nccc(Oc4ccc(NC(=O)C5(C(=O)Nc6ccc(F)cc6)CC5)cc4F)c23)c1` as the compound, how does the IC50 read?
Its IC50 is under 40 nM.

How did the IC50 turn out when `CN(C)Cc1cccc(-c2ccn3nccc(Oc4ccc(NC(=O)C5(C(=O)Nc6ccc(F)cc6)CC5)cc4F)c23)c1` was run?
The IC50 was under 40 nM.

Which IC50 does the source give for `N#CCc1cccc(-c2ccn3nccc(Oc4ccc(NC(=O)C5(C(=O)Nc6ccc(F)cc6)CC5)cc4F)c23)c1` here?
Its IC50 is under 40 nM.

For `N#Cc1cc(N)cc(-c2ccn3nccc(Oc4ccc(NC(=O)C5(C(=O)Nc6ccc(F)cc6)CC5)cc4F)c23)c1`, which IC50 is on record?
The IC50 was under 40 nM.

For `CNCc1cccc(-c2ccn3nccc(Oc4ccc(NC(=O)C5(C(=O)Nc6ccc(F)cc6)CC5)cc4F)c23)c1`, which IC50 is on record?
Its IC50 is under 40 nM.

Which IC50 does the source give for `CN(C)Cc1cc(F)cc(-c2ccn3nccc(Oc4ccc(NC(=O)C5(C(=O)Nc6ccc(F)cc6)CC5)cc4F)c23)c1` here?
The IC50 was under 40 nM.
